Here are results for two substances from patent US20260097133A1, “EPIGENETIC EDITING TOOL FOR TARGETING HEPATITIS B VIRUS GENE” (priority 2023, published 2026).

For experiment [1], the system named is type D hepatitis B virus (GenBank: U95551). As to the kind of experiment: Knockdown of HBV markers in HBV-infected primary hepatocytes (PHH), Example 2. Format: cell-based. The text has this:
A primary hepatocyte (PHH) cell line infected with type D hepatitis B virus (GenBank: U95551) was used in this example. […] Therefore, these four sgRNAs were used to formulate the pharmaceutical composition provided in the present application and perform epigenetic editing in primary hepatocytes to validate their inhibitory effect on HBV gene expression.
Two days after primary hepatocytes were infected with HBV, lipid nanoparticles (LNPs) (LNP preparation reference: https://doi.org/10.1038/s41586-021-03534-y) were used to deliver a composition containing mRNA encoding EPIREG (SEQ ID NO: 1191) and each sgRNA (BSG29, BSG31, BSG34, BSG35) into primary hepatocytes (administration dose was 2.5 μg/ml, the mass ratio of EPIREG to sgRNA was 1:1). The culture supernatant was collected every two days after administration to detect the expression levels of HBV surface antigen (HBsAg) and core antigen (HBcAg) secreted by the cells. Cell samples were collected until 14 days after administration, DNA and RNA were extracted from the cells, and the levels of HBV mRNA and changes in the cccDNA of the HBV gene were detected. The two groups of positive controls used Myrcludex B (WuXi AppTec, C9023GE070-1/PE0723) and RG7834 (WuXi AppTec, ET25747-14-P1), respectively. Myrcludex B could inhibit HBV infection of hepatocytes, and RG7834 could inhibit the synthesis of viral proteins. RG7834 was stopped on the day 13 of the experiment to observe the rebound of viral antigen proteins. (Specific detection methods were performed according to the following kit instructions: HBsAg ELISA kit, Antu-CL 0310; HBeAg ELISA kit, Antu-CL 0312; RNeasy 96 Kit (12), QIAGEN #74182)

In experiment [2] the test system is HBx reporter cell line of type D HBV. As to the kind of experiment: sgRNA functional screening in HBx reporter cell line (293 FT, P2A-EGFP), type D HBV. Format: cell-based, type D HBV (serotype ayw). The text has this:
(§1) 293 FT was used to construct a reporter cell line for type B, type C and type D HBV surface antigen (HBsAg), core antigen (HBcAg), X protein (HBx) and polymerase (Pol), and the schematic diagram is shown in FIG. 1A. The genomic sequence containing the CpG island and regulatory elements before the protein transcription start site was retained, and the gene sequences of the self-cleaving peptide P2A and EGFP were fused after the 38th amino acid of the HBV surface antigen (HBsAg), the 129th amino acid of the core antigen (HBcAg), the 77th amino acid of the X protein (HBx), and the 177th amino acid of the polymerase (Pol), respectively. The reporter gene was integrated into the 293 FT genome using the PiggyBac transposon system, and a stably transfected cell line was constructed. The intensity of fluorescence was used to reflect the expression level of the protein, thereby quickly performing functional validation and preliminary screening of sgRNAs near the CpG island. […]

The subject of experiment [3] is HBx reporter cell line of type B HBV. As to the kind of experiment: sgRNA functional screening in HBx reporter cell line (293 FT, P2A-EGFP), type B HBV. Type of experiment: cell-based, type B HBV (serotype adw). The text has this:
293 FT was used to construct a reporter cell line for type B, type C and type D HBV surface antigen (HBsAg), core antigen (HBcAg), X protein (HBx) and polymerase (Pol), and the schematic diagram is shown in FIG. 1A. The genomic sequence containing the CpG island and regulatory elements before the protein transcription start site was retained, and the gene sequences of the self-cleaving peptide P2A and EGFP were fused after the 38th amino acid of the HBV surface antigen (HBsAg), the 129th amino acid of the core antigen (HBcAg), the 77th amino acid of the X protein (HBx), and the 177th amino acid of the polymerase (Pol), respectively. The reporter gene was integrated into the 293 FT genome using the PiggyBac transposon system, and a stably transfected cell line was constructed. The intensity of fluorescence was used to reflect the expression level of the protein, thereby quickly performing functional validation and preliminary screening of sgRNAs near the CpG island.
The screening scheme for sgRNA functional validation using the above-mentioned reporter cell line was designed as follows (FIG. 1B): after the reporter cells were plated, the composition EPIREG described in the present application (the domain of the composition was DNMT3A-hDNMT3L-xten80-ZIM3-xten80-dCas9, with an amino acid sequence as set forth in SEQ ID NO: 1194, and a nucleic acid sequence as set forth in SEQ ID NO: 1192 (CDS sequence) and 1193 (plasmid sequence)) containing different sgRNAs was delivered into the cells by transfection, and the two carried red fluorescence and blue fluorescence, respectively. Flow cytometry was used to sort red fluorescent and blue fluorescent double-positive cell populations, which were cultured for a long time. Flow cytometric analysis was performed every week to detect changes in the fluorescence intensity of the reporter cells, which could reflect changes in protein expression levels after epigenetic editing.

The subject of experiment [4] is HBx reporter cell line of type C HBV. As to the kind of experiment: sgRNA functional screening in HBx reporter cell line (293 FT, P2A-EGFP), type C HBV. Type of experiment: cell-based, type C HBV (serotype adr).
Source text: as §1

In experiment [5] the test system is type D hepatitis B virus (GenBank: U95551). Kind of experiment: Candidate sgRNA effect validation in HBV-infected primary hepatocytes (PHH), Example 4. Type of experiment: cell-based. As to conditions: 14 days after infection. The source says: A primary hepatocyte (PHH) cell line (WuXi AppTec, M00995-P) infected with type D hepatitis B virus (GenBank: U95551) was used in this validation experiment. Based on the screening results of the three libraries in Example 3 and combined with factors such as conservation, the 20 sgRNAs shown in the table below were selected to prepare the pharmaceutical composition provided in the present application and perform epigenetic editing in the primary hepatocytes to validate the inhibitory effect of the screened candidate sgRNAs on HBV gene expression.
Two days after primary hepatocytes were infected with HBV, lipid nanoparticles (LNPs) (LNP preparation reference: https://doi.org/10.1038/s41586-021-03534-y) were used to deliver the composition comprising the mRNA encoding EPIREG (sequence: SEQ ID NO: 1191) and each of the above-mentioned sgRNAs into primary hepatocytes (administration dose was 2.5 μg/ml, the mass ratio of EPIREG to sgRNA was 1:1). […] The supernatant of the culture medium was collected every two days after administration in each group, and the expression levels of HBV surface antigen (HBsAg), core antigen (HBcAg/HBeAg) and HBV DNA secreted by the cells were detected until 14 days after infection. Cell samples were collected, DNA and RNA in the cells were extracted, and the level of HBV mRNA was detected. […]

Experiment [6] has as its system HBV genome (type A, GenBank: AF305422.1). Kind of experiment: Knockdown of HBV markers in transgenic HBV mice. Type of experiment: in vivo, mice (C57BL/6-HBV). The settings on record: after single administration. The source says:
Transgenic HBV mice (Beijing Vitalstar Biotechnology Co., Ltd., C57BL/6-HBV, subsequent feeding and testing were completed by Beijing Vitalstar) were used in this validation experiment. The genome of this strain of mice was inserted with a 1.28-fold length HBV genome (type A, GenBank: AF305422.1). […] Therefore, this sgRNA was used to prepare the pharmaceutical composition provided in the present application and perform epigenetic editing in transgenic HBV mice to validate the inhibitory effect of this drug on the expression of integrated HBV genes in an in vivo model.
The composition comprising the mRNA encoding EPIREG (sequence: SEQ ID NO: 1191) and sgRNA numbered D99 (BSG35) (mass ratio of mRNA to sgRNA of 1:1) was delivered to transgenic HBV mice (at a dose of 10 mg/kg) by means of tail vein injection of lipid nanoparticles (LNPs) (LNP preparation reference: https://doi.org/10.1038/s41586-021-03534-y). PBS (200 ul) was injected as a negative control, and the antisense oligonucleotide (ASO) drug Bepirovirsen (GSK3228836, dose of 200 mg/kg) was used as a positive control, which could target all HBV RNAs and thus reduce the expression of HBV antigens. After administration, blood was collected regularly in each group to detect the levels of HBV surface antigen (HBsAg) and core antigen (HBcAg/HBeAg) secreted in serum, and the level of HBV DNA was detected by qPCR. […]

The mark [7] stands for this setting: LNP with EPIREG mRNA + sgRNA 1:1, 2.5 μg/ml, 2-10 days after administration.

Turning to AGGAGTTCCGCAGTATGGAT [BSG35], the “inhibitory effect compared with Myrcludex B and RG7834” value in experiment [1] was “close to that of the two reference inhibitors”. For the same substance, in experiment [1] (2.5 μg/ml), the “inhibitory effect on HBsAg and HBeAg/HBcAg, comparison among sgRNAs” value was “best effect”. Besides, the “expression levels of HBsAg and HBeAg/HBcAg in the supernatant (change)” value in experiment [1] (2.5 μg/ml, 2-10 days after administration) was “different degrees of decrease”. For the same substance, the “reduction of expression level of HBeAg/HBcAg in the supernatant” value in experiment [1] (setting [7]) was “about 80%”. For the same substance, in experiment [1] (setting [7]), the “reduction of expression level of HBsAg in the supernatant” value is on record as “about 80%”. The “time at which expression levels of HBsAg and HBeAg/HBcAg became stable” value in experiment [1] (after single administration) is reported as “basically stable on the day 4 after administration”. In addition, in experiment [1] (sgRNA: single 4 h treatment, RG7834 stopped on day 13), the “level of viral antigen protein (HBsAg, HBeAg/HBcAg) after end of treatment” value is on record as “remained stable at a low level”. Also, the “inhibitory effects on HBx expression” value in experiment [2], in experiment [3] (type B HBV HBx reporter cell line) and in experiment [4] was “nearly the best inhibitory effects” each time. In experiment [3] (type B HBV, different time points after transfection of EPIREG + sgRNA), the “editing effects in the HBx reporter cell line” value is “extremely high editing effects”. In addition, the “inhibition level, comparison among the 20 sgRNAs” value in experiment [5] is given as “highest inhibition level”.

With Bepirovirsen [ASO], in experiment [6], the “persistence of effect on HBV markers” value was “gradually returned to their original levels”.
